# In patent US20240059741A1, “COMPOSITION FOR PREVENTION OR TREATMENT OF SARS-COV-2 INFECTION” (priority 2020, published 2024):
# What was measured:
# proteinaseK = biological target: T1, proteinaseK (Parengyodontium album, UniProt P06873); assay: Peptide remaining degree after ProtK treatment (Coomassie staining); type: in vitro ADME; details: 5 ug/ml proteinaseK, 37° C., 10, 30 and 60 minutes, FIG. 7
# T1 construct: purchased Bioshop
# Description: 200 μL of 50 μM stock solution was prepared with a base buffer (10 mM Tris-base, 10 mM NaCl, pH 7.4) and supplemented with 5 μM CaCl2. For untreated TO samples, 30 μL were obtained from each sample. Thereafter, 5 ug/ml of proteinaseK (Bioshop) was added to a final concentration of the remaining stock. […] Protease inactivated samples were frozen at −20° C. before further use. The frozen sample was supplemented with 8 μL of sample loading buffer (4×NuPAGE; ThermoFisher Scientific), boiled for 10 minutes (50° C.), and centrifuged at 13,500 RPM for 10 minutes before mounting a gel [12% NuPAGE Bis-Tris (ThermoFisher Scientific)] with 1×Mes running buffer. The gel was treated at 200 V for 35 minutes and stained with Coomassie Brilliant Blue dye G-250 (Thermo Fisher Scientific). ImageJ software having a background subtractive function was used as a density meter. All samples were normalized to untreated samples (TO).
# SARS-CoV-2 S1 [1] = system: SARS-CoV-2 S1
# SARS-CoV-2 S1 [2] = system: SARS-CoV-2 S1; remark: listed apart in the source
# T1 sequence (P06873 106-384, species assumed): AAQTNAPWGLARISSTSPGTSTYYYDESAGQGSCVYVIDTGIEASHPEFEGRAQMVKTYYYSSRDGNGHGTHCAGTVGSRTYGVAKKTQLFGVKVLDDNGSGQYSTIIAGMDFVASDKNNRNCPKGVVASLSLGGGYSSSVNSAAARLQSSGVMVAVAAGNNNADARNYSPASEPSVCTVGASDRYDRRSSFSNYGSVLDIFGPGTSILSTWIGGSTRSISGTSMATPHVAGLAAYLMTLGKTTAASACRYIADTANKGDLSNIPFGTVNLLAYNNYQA
smiles,measurement,setting,value
CC[C@H](C)[C@H](N)C(=O)N[C@@H](CCC(=O)O)C(=O)N[C@@H](CCC(=O)O)C(=O)N[C@@H](CCC(N)=O)C(=O)N[C@@H](C)C(=O)N[C@@H](CCCCN)C(=O)N[C@H](C(=O)N[C@@H](Cc1ccccc1)C(=O)N[C@@H](CC(C)C)C(=O)N[C@@H](CC(=O)O)C(=O)N[C@@H](CCCCN)C(=O)N[C@@H](Cc1ccccc1)C(=O)N[C@@H](CC(N)=O)C(=O)N[C@@H](Cc1c[nH]cn1)C(=O)N[C@@H](CCC(=O)O)C(=O)N[C@@H](C)C(=O)N[C@@H](CCC(=O)O)C(=O)N[C@@H](CC(=O)O)C(=O)N[C@@H](CC(C)C)C(=O)N[C@@H](Cc1ccccc1)C(=O)N[C@@H](Cc1ccc(O)cc1)C(=O)N[C@@H](CCC(N)=O)C(=O)N[C@@H](CO)C(=O)N[C@@H](CO)C(=O)N[C@@H](CC(C)C)C(=O)N[C@@H](C)C(=O)N[C@@H](CO)C(=O)NCC(=O)N1CCC[C@H]1C(=O)NCC(=O)N[C@H]1CSSC[C@@H](C(=O)N[C@@H](CCCNC(=N)N)C(=O)N[C@H](C(=O)N[C@@H](CC(C)C)C(=O)O)[C@@H](C)CC)NC(=O)[C@H](CC(=O)O)NC(=O)CNC(=O)[C@H](CCCCN)NC(=O)CNC(=O)[C@H](CC(C)C)NC1=O)[C@@H](C)O [CSNP1],peptide remaining degree after proteinase K treatment,proteinaseK,barely remained
same,ka,SARS-CoV-2 S1 [1],603.4 M⁻¹ s⁻¹
same,kd,SARS-CoV-2 S1 [2],0.0001878 s⁻¹
